# Measured values taken from patent US20110171329A1, “METHOD FOR TREATMENT OF NEURAL INJURIES” (priority 2009, published 2011).
# Experiments:
# [1] = test system: cortical mixed neuronal-glial cultures; assay: DCF assay of toxin-induced free radical formation in cortical mixed neuronal-glial cultures; format: cell-based, rat
# Protocol: (§1) Mixed neuron-glia cell cultures were prepared from the spinal, mesencephalic and cortical regions of an embryonic Sprague-Dawley rat fetus (gestation day 15), respectively, as described in Tsai et al. (Ann. N.Y. Acad. Sci. 1042 (2005):338-348). Briefly, cells were dissociated with a mixture of papain/protease/deoxyribonuclease I (0.1%:0.1%:0.03%) and plated onto poly-lysine coated dishes at a density of 1 to 2×10^5 cells/cm^2 with Dulbecco's modified Eagle's medium (DMEM) supplemented with 10% fetal bovine serum (FBS). On the second day after cell seeding, the cultures were maintained in DMEM+10% FBS or in DMEM supplemented with N2 (Invitrogen, Carlsbad, Calif.) as serum-free medium.
# (§2) On the 2nd or 3rd day after cell seeding, the cultures were firstly loaded with 50 μM DCFH-DA in serum-free medium (DMEM+N2) for 1 hr. The medium was then replaced with growth medium containing H2O2 (1 mM) or t-BOOH (0.75 mM) and the cultures were maintained in the growth medium for 2 hrs. HD2 (20 to 200 μg/ml) and baicalein (2 or 10 μM) were then added to the cultures within 10 minutes after the toxin treatment started, respectively. The resulted fluorescent DCF levels were measured by a fluorescence plate reader (ex/em: 485 nm/538 nm). FIGS. 5 and 6 show the results of the measurement.
# [2] = test system: spinal cord mixed neuronal-glial cultures; assay: DCF assay of toxin-induced free radical formation in spinal cord mixed neuronal-glial cultures; format: cell-based, rat
# Protocol: as §1, §2
# [3] = H2O2 1 mM, baicalein 2 and 10 μM
# [4] = t-BOOH 0.75 mM, baicalein 2 or 10 μM, P<0.01
smiles,measurement,setting,value
O=c1cc(-c2ccccc2)oc2cc(O)c(O)c(O)c12 [baicalein],free radical level induced by H2O2,[1]; [3],significantly reduced
same,free radical level induced by t-BOOH,[1]; [4],significantly inhibited
same,free radical level induced by H2O2,[2]; [3],significantly reduced
same,free radical level induced by t-BOOH,[2]; [4],significantly inhibited
